Holding throughout (type): cell-based, human
Assay [1] has as its system pancreatic endoderm cells. Briefly: NGN3/NKX2.2 double positive cells by immunostaining and InCell imaging after PE to EP differentiation. The protocol: After three days of EP differentiation, at EP day 4, media were aspirated followed by fixation of the cells at room temperature for 30 min with 4% paraformaldehyde (VWR, 97.131.000). Cells were washed with PBS and permeabilized with 0.5% Triton X-100 (Sigma, 9002-93-1) for 10 min, washed and blocked in 0.5% TNB-buffer (Perkin Elmer) for 30 min at room temperature. Primary antibodies, sheep anti-NGN3 (R&D systems #AF3444) and rabbit anti-NKX2.2 (Sigma #HPA003468) were diluted 1:1000 and 1:500, respectively, in 0.1% Triton X-100 in PBS and added to each well for overnight incubation at 4° C. Cells were washed three times with PBS. DAPI (4′,6-diamidino-2-phenylindole, Applichem, A4099.0010) and secondary antibodies, Alexa Fluor 488 donkey anti-goat and Alexa Fluor 594 donkey anti-rabbit (both Invitrogen) were diluted 1:1000 in 0.1% Triton X-100 in PBS and added to each well for 45 min. Cells were washed five times and left in 200 μL PBS for imaging. Imaging was performed using the InCell Analyzer 2000 (GE Healthcare). 4 fields per well with 10× objective were captured. The total cell number based in the DAPI counterstaining and the number of NGN3/NKX2.2 double positive cells was determined using InCell Developer Toolbox 1.8 (GE Healthcare). The fraction of NGN3/NKX2.2 double positive cells were quantified using the InCell developer toolbox software (GE Healthcare) and normalized to the combined protocol K&N (example 2) on each plate and the % effect was calculated (% effect NGN3/NKX2.2 double positive=((S−Sneg)/(|Spos−Sneg|))*100). Wherein S is % NGN3/NKX2.2 double positive cells for a given compound combination, Sneg and Spos are % NGN3/NKX2.2 double positive cells for the negative control and combined protocol K&N, respectively).
An EP cell population was prepared according to examples 1 and 2. However, in addition to the reagents used in example 2 the small molecules listed in table 3 were added for three days at concentrations specified in table 3 below in concentrations as shown. After three days of EP differentiation media were aspirated followed by fixation of the cells at room temperature for 30 min with 4% paraformaldehyde (VWR, 97.131.000). Cells were washed with PBS and permeabilized with 0.5% Triton X-100 (Sigma, 9002-93-1) for 10 min, washed and blocked in 0.5% TNB-buffer (Perkin Elmer) for 30 min at room temperature. Primary antibodies, sheep anti-NGN3 (R&D systems #AF3444) and rabbit anti-NKX2.2 (Sigma #HPA003468) were diluted 1:1000 and 1:500, respectively, in 0.1% Triton X-100 in PBS and added to each well for overnight incubation at 4° C. Cells were washed three times with PBS. DAPI (4′,6-diamidino-2-phenylindole, Applichem, A4099.0010) and secondary antibodies, Alexa Fluor 488 donkey anti-goat and Alexa Fluor 594 donkey anti-rabbit (both Invitrogen) were diluted 1:1000 in 0.1% Triton X-100 in PBS and added to each well for 45 min. Cells were washed five times and left in 200 μL PBS for imaging.
Imaging was performed using the InCell Analyzer 2000 (GE Healthcare). 4 fields per well with 10× objective were captured. The total cell number based in the DAPI counterstaining and the number of NGN3/NKX2,2 double positive cells was determined using InCell Developer Toolbox 1.8 (GE Healthcare). The fraction of NGN3/NKX2.2 double positive cells were quantified using the InCell developer toolbox software (GE Healthcare) and normalized to the combined protocol K&N on each plate and the % effect was calculated (% effect NGN3/NKX2.2 double positive=((S−Sneg)/(|Spos−Sneg|))*100). Wherein S is % NGN3/NKX2.2 double positive cells for a given compound combination, Sneg and Spos are % NGN3/NKX2.2 double positive cells for the negative control and combined protocol K&N, respectively).

The test system of assay [2] is CHiPS2 (iPS) derived pancreatic endoderm cells. Nature of the assay: NGN3/NKX2.2 double positive cells by imaging, small molecule combinations, CHiPS2 (iPS). To be noted: Method of example 2 + 2.5 μM DAPT. The protocol: (§1) An EP cell population was prepared according to example 2. However, in addition to the reagents used in example 2, certain small molecules listed in table 3 were added either alone or in combination during the three days of EP differentiation. After three days of EP differentiation media were aspirated followed by fixation of the cells at room temperature for 30 min with 4% paraformaldehyde (VWR, 97.131.000). Cells were washed with PBS and permeabilized with 0.5% Triton X-100 (Sigma, 9002-93-1) for 10 min, washed and blocked in 0.5% TNB-buffer (Perkin Elmer) for 30 min at room temperature. […] Cells were washed three times with PBS. DAPI (4',6-diamidino-2-phenylindole, Applichem, […]10) and secondary antibodies, Alexa Fluor 488 donkey anti-goat and Alexa Fluor 594 donkey anti-rabbit (both Invitrogen) were diluted 1:1000 in 0.1% Triton X-100 in PBS and added to each well for 45 min. Cells were washed five times and left in 200 μL PBS for imaging. Imaging was performed using the InCell Analyzer 2000 (GE Healthcare). 4 fields per well with 10× objective were captured.

The test system of assay [3] is SA121 (hES) derived pancreatic endoderm cells. Briefly: NGN3/NKX2.2 double positive cells by imaging, small molecule combinations, SA121 (hES). The following applies: Method of example 2 + 2.5 μM DAPT. The protocol: as §1
The mark [4] stands for this setting: 1 μM added to method of example 2 for three days.
Where [5] appears, read: 5 μM added to method of example 2 for three days.
[6] abbreviates: 10 μM added to method of example 2 for three days.
Setting [7] is: 0.1 μM added to method of example 2 for three days.
[8] abbreviates: 0.5 μM added to method of example 2 for three days.

This note sets out measurements from US20200002670A1, “Generation of Endocrine Progenitor Cells from Human Pluripotent Stem Cells Using Small Molecules” (Novo Nordisk A/S, priority 2013, published 2020).

For `CCC(=O)Nc1ccc2ncnc(Nc3cccc(Br)c3)c2c1` [PD174265], the “% effect NGN3/NKX2.2 double positive cells” value in assay [1] (setting [4]) amounted to 240%; in assay [1] (setting [5]), 374%; in assay [1] (setting [6]), 274%.
As to `C[C@H](NC(=O)Cc1cc(F)cc(F)c1)C(=O)N[C@@H]1C(=O)N(C)c2ccccc2-c2ccccc21` [CompE], the “% effect NGN3/NKX2.2 double positive cells” value stood at 250% in assay [1] (5 nM added to method of example 2 for three days), 325% in assay [1] (50 nM added to method of example 2 for three days) and 395% in assay [1] (500 nM added to method of example 2 for three days).
As to `COc1cc2ncnc(Nc3ccc(F)c(Cl)c3)c2cc1OCCCN1CCOCC1` [Gefitinib], the “% effect NGN3/NKX2.2 double positive cells” value in assay [1] (setting [7]) came to 222%; in assay [1] (setting [4]) it was 311%; in assay [1] (setting [5]), 325%.
`Cn1cnc2cc3c(Nc4cccc(Br)c4)ncnc3cc21` [BPIQ-I]: the “% effect NGN3/NKX2.2 double positive cells” value in assay [1] (setting [6]) amounted to 350%.
Regarding `CCOc1nc(NC(=O)Cc2cc(OC)ccc2OC)cc(N)c1C#N` [JNK VIII], the “% effect NGN3/NKX2.2 double positive cells” value was 160% in assay [1] (setting [7]); 156% in assay [1] (setting [8]); 204% in assay [1] (setting [4]); 315% in assay [1] (setting [5]); 308% in assay [1] (setting [6]).
As for `O=C(c1ccccc1)c1ccc(N2CCOCC2)cc1O` [DNA-PK inhibitor V], the “% effect NGN3/NKX2.2 double positive cells” value in assay [1] (setting [5]) is 370%.
For the compound `C[C@H](NC(=O)Cc1cc(F)cc(F)c1)C(=O)N[C@H](C(=O)OC(C)(C)C)c1ccccc1` [DAPT], in assay [2], the “% effect NGN3/NKX2.2 double positive cells, CHiPS2 (iPS)” value was determined as 167%. In assay [3], the “% effect NGN3/NKX2.2 double positive cells, SA121 (hES)” value is on record as 165%. The “% effect NGN3/NKX2.2 double positive cells” value in assay [1] (setting [8]) worked out at 150%; in assay [1] (2.5 μM added to method of example 2 for three days), 350%; in assay [1] (25 μM added to method of example 2 for three days) it was 300%.
In the case of `Cn1cc(/C=C2\C(=O)Nc3ccc(S(N)(=O)=O)cc32)c2ccccc21` [Syk inhibitor], the “% effect NGN3/NKX2.2 double positive cells” value in assay [1] (setting [4]) amounted to 157%.
For `COc1cccc(-c2cc(=O)c3ccccc3o2)c1N` [PD98059], in assay [1] (setting [4]), the “% effect NGN3/NKX2.2 double positive cells” value worked out at 165%.
Turning to `Cc1cccc(-c2nc(C(C)(C)C)[nH]c2-c2ccc3c(c2)OCO3)n1.Cl` [TGFbRI inhibitor III], the “% effect NGN3/NKX2.2 double positive cells” value in assay [1] (setting [5]) worked out at 182%.
Regarding `c1ccc2c(-c3ccncc3)c[nH]c2c1` [Rockout], the “% effect NGN3/NKX2.2 double positive cells” value stood at 208% in assay [1] (setting [5]) and 199% in assay [1] (setting [6]).
On the same counts, the results for `CSc1nc(-c2ccc(F)cc2)c(-c2ccnc(NC(C)c3ccccc3)c2)[nH]1` (stereo not shown) [p38 inhibitor III] are 191% and 153%.
For `CN(C)c1ccc(/C=C2/C(=O)Nc3ccccc32)cc1` [DMBI, (Z)-3-[4-(Dimethylamino)benzylidenyl]indolin-2-one], the “% effect NGN3/NKX2.2 double positive cells” value turned out to be 167% in assay [1] (setting [5]) and 231% in assay [1] (setting [6]).
On to `CC(C)CC(NC(=O)C(Cc1ccccc1)CC(O)C(Cc1ccccc1)NC(=O)OC(C)(C)C)C(=O)NC(Cc1ccccc1)C(N)=O` (stereo not shown) [L6], for which the “% effect NGN3/NKX2.2 double positive cells” value in assay [1] (50 μM added to method of example 2 for three days) is on record as 150%.
